According to US9284307B2, “Macrocyclic serine protease inhibitors” (Idenix Pharmaceuticals LLC, priority 2009, dated 2016):

Assays:
[1] = test system: HCV Con1 subgenomic replicon in Huh-7 cells (GS4.1 cells); experiment: HCV replicon assay (NS4A ELISA, GS4.1 cells); format: cell-based; conditions: Hepatitis C virus, 72 hr
Method: Huh-7 cells containing HCV Con1 subgenomic replicon (GS4.1 cells) were grown in Dulbecco's Modified Eagle Medium (DMEM) supplemented with 10% fetal bovine serum (FBS), 2 mM L-glutamine, 110 mg/L sodium pyruvate, 1× non-essential amino acids, 100 U/mL penicillin-streptomycin, and 0.5 mg/mL G418 (Invitrogen). For dose-response testing, the cells were seeded in 96-well plates at 7.5×10^3 cells/well in a volume of 50 μL, and incubated at 37° C./5% CO2. Three hours after plating, 50 μL of ten 2-fold serial dilutions of compounds (highest concentration, 75 μM) were added, and cell cultures were incubated at 37° C./5% CO2 in the presence of 0.5% DMSO. Alternatively, compounds were tested at a single concentration of 15 μM. In all cases, Huh-7 cells lacking the HCV replicon served as negative control. The cells were incubated in the presence of compounds for 72 hr after which they were monitored for expression of the NS4A protein by enzyme-linked immunosorbent assay (ELISA). […] The reaction was stopped after 30 min with 2 N H2SO4, and absorbance was read at 492 nm using Sunrise Tecan spectrophotometer. EC50 values were determined from the % inhibition versus concentration data using a sigmoidal non-linear regression analysis based on four parameters with Tecan Magellan software.

[2] = test system: HCV luciferase-bearing mutant replicon, NS3 A156T, in cured GS4.1 cells; experiment: Luciferase replicon transient transfection assay, A156T mutant replicon; format: cell-based
Method: (§1) The luciferase replicon transient transfection assay measures the ability of a test compound to inhibit the replication of a transiently-transfected HCV luciferase-bearing wild-type or mutant replicon in cured human hepatoma cells (cured GS4.1). The mutant replicons bear a specific single-site mutation in NS3 that is known to confer resistance to protease inhibitors currently in development. The inhibition of HCV replication was measured by quantification of luciferase protein expression. This assay has been validated using a panel of replicons bearing known protease inhibitor resistance mutations and their respective reference compounds. Briefly, subconfluent cured GS4.1 cells in OptiBuffer (ThermoElectron Corp.) were electroporated with 40 μg of wild-type or mutant luciferase-bearing HCV replicon RNA. The cells were then seeded in 96-well opaque white plates at 2.4×10^4 cells/well in 150 μL/well and incubated for 4 hours at 37° C./5% CO2. […] The plates were agitated on a rotating platform at room temperature for 3 minutes and read in a Victor^3V microplate reader (Perkin-Elmer) using a 700 nm cut-off filter with a 1 second read time. EC50 values were calculated from dose response curves from the resulting best-fit equations determined by Microsoft Excel and XLfit 4.1 software.

[3] = test system: HCV luciferase-bearing mutant replicon, NS3 D168V, in cured GS4.1 cells; experiment: Luciferase replicon transient transfection assay, D168V mutant replicon; format: cell-based
Method: as §1

HCV NS3-NS4A protease = molecular target: T1, HCV NS3-NS4A protease (Hepatitis C virus genotype 1b, UniProt Q9WMX2); experiment: HCV protease assay (SensoLyte 620 HCV Protease Assay kit); format: biochemical; conditions: 1.2 nM HCV NS3-NS4A protease, 60 min at room temperature
T1 construct: using 1.2 nM HCV NS3-NS4A protease, which was obtained according to Taremi et al; made in house
T1 sequence (Q9WMX2 1027-1208): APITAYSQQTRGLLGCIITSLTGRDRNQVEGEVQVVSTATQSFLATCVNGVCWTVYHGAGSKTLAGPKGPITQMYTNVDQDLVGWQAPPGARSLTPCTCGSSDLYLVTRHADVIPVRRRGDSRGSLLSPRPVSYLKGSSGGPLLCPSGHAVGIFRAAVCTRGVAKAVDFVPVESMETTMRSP
Method: Measurement of the inhibitory effect of compounds on HCV protease activity was performed with the SensoLyte™ 620 HCV Protease Assay kit from AnaSpec, Inc. (San Jose, Calif.) under conditions described by the supplier using 1.2 nM HCV NS3-NS4A protease, which was obtained according to Taremi et al. (Protein Science, 1998, 7, 2143-2149). The compounds were tested at a variety of concentrations in assay buffer containing a final DMSO concentration of 5%. Reactions were allowed to proceed for 60 min at room temperature and fluorescence measurements were recorded with a Tecan Infinity Spectrofluorimeter. The IC50 values were determined from the percent inhibition versus concentration data using a sigmoidal non-linear regression analysis based on four parameters with Tecan Magellan software.

HCV NS3-NS4A protease 3a = molecular target: T2, HCV NS3-NS4A protease 3a (Hepatitis C virus genotype 3a, UniProt Q81258); experiment: HCV protease assay (HiLyte Fluor TR/QXL 610 FRET peptide), genotype 3a; format: biochemical; conditions: 2-3 nM protease, 60 min at 30° C., read-out: IC50 Against HS3/4A 3a
T2 construct: using 2-3 nM HCV NS3-NS4A protease, which was produced according to the method of Taremi et al; made in house
T2 sequence (Q81258 1033-1214): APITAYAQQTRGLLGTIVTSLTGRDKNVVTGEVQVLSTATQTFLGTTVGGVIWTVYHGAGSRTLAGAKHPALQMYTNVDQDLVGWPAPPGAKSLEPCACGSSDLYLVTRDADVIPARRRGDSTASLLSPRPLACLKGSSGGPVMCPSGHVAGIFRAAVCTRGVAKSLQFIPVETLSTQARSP
Method: (§2) Measurement of the inhibitory effect of compounds on HCV protease activity was performed using the HiLyte Fluor™ TR/QXL™ 610 FRET peptide from AnaSpec, Inc. (San Jose, Calif.) under conditions developed in-house using 2-3 nM HCV NS3-NS4A protease, which was produced according to the method of Taremi et al. (Protein Science, 1998, 7, 2143-2149). The compounds were tested at a variety of concentrations in assay buffer containing a final DMSO concentration of 5%. Reactions were allowed to proceed for 60 min at 30° C. and fluorescence measurements were recorded with a PerkinElmer Victor^3 V 1420 Multilabel Counter. The IC50 values were determined from the percent inhibition versus concentration data using a sigmoidal non-linear regression analysis based on four parameters with XLfit 4.1 software.

HCV NS3-NS4A protease 1b = molecular target: T3, HCV NS3-NS4A protease 1b (Hepatitis C virus genotype 1b, UniProt Q9WMX2); experiment: HCV protease assay (HiLyte Fluor TR/QXL 610 FRET peptide), genotype 1b; format: biochemical; conditions: 2-3 nM protease, 60 min at 30° C., read-out: IC50 Against HS3/4A 1b
T3 construct: using 2-3 nM HCV NS3-NS4A protease, which was produced according to the method of Taremi et al; made in house
T3 sequence (Q9WMX2 1027-1208): as the sequence (Q9WMX2 1027-1208) above
Method: as §2

HCV NS3-NS4A protease 4a = molecular target: T4, HCV NS3-NS4A protease 4a (Hepatitis C virus genotype 4a, UniProt O39929); experiment: HCV protease assay (HiLyte Fluor TR/QXL 610 FRET peptide), genotype 4a; format: biochemical; conditions: 2-3 nM protease, 60 min at 30° C., read-out: IC50 Against HS3/4A 4a
T4 construct: using 2-3 nM HCV NS3-NS4A protease, which was produced according to the method of Taremi et al; made in house
T4 sequence (O39929 1027-1208): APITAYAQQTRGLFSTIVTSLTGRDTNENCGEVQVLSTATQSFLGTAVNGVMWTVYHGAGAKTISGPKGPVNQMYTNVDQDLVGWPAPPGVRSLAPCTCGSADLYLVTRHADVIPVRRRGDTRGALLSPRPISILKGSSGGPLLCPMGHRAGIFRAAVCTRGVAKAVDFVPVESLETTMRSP
Method: as §2

COc1ccc2c(O[C@H]3CC[C@H]4C(=O)N(C)CCCC/C=C\[C@@H]5C[C@@]5(C(=O)NS(=O)(=O)C5(C)CC5)NC(=O)[C@@H]4C3)cc(-c3nc(C(F)(F)F)cs3)nc2c1C [Compound 51]
EC50 [1]: < 1000 nM | Fold Change, A156T replicon ([2]; EC50 fold change, A156T replicon): 20-95 | EC50 ([2]; Hepatitis C virus, 96 h, read-out: EC50(nm), A156T replicon): 25 to 40 nM | Fold Change, D168V replicon ([3]; EC50 fold change, D168V replicon): 1000-3000 | EC50 ([3]; Hepatitis C virus, 96 h, read-out: EC50(nm), D168V replicon): 2000 to 2750 nM | IC50 (HCV NS3-NS4A protease): < 1000 nM | IC50 (HCV NS3-NS4A protease 3a): < 1000 nM | IC50 (HCV NS3-NS4A protease 1b): < 1000 nM | IC50 (HCV NS3-NS4A protease 4a): < 1000 nM
